In US11691980B2, “Liphagal analog and multi-targeted kinase inhibitor containing liphagal or analog thereof” (TOHOKU UNIVERSITY, priority 2017, dated 2023):

How the values were obtained:
Assay type in all cases: biochemical
MAP3K5_Cascade = target: T1, MAP3K5_Cascade (Homo sapiens, UniProt Q99683); assay: mobility shift assay
T1 construct: purchased Carna Biosciences

DDR1 = target: T2, DDR1 (Homo sapiens, UniProt Q08345); assay: mobility shift assay
T2 construct: purchased Carna Biosciences

TIE2 = target: T3, TIE2 (Homo sapiens, UniProt Q02763); assay: mobility shift assay
T3 construct: purchased Carna Biosciences
T3 sequence (Q02763 23-1124): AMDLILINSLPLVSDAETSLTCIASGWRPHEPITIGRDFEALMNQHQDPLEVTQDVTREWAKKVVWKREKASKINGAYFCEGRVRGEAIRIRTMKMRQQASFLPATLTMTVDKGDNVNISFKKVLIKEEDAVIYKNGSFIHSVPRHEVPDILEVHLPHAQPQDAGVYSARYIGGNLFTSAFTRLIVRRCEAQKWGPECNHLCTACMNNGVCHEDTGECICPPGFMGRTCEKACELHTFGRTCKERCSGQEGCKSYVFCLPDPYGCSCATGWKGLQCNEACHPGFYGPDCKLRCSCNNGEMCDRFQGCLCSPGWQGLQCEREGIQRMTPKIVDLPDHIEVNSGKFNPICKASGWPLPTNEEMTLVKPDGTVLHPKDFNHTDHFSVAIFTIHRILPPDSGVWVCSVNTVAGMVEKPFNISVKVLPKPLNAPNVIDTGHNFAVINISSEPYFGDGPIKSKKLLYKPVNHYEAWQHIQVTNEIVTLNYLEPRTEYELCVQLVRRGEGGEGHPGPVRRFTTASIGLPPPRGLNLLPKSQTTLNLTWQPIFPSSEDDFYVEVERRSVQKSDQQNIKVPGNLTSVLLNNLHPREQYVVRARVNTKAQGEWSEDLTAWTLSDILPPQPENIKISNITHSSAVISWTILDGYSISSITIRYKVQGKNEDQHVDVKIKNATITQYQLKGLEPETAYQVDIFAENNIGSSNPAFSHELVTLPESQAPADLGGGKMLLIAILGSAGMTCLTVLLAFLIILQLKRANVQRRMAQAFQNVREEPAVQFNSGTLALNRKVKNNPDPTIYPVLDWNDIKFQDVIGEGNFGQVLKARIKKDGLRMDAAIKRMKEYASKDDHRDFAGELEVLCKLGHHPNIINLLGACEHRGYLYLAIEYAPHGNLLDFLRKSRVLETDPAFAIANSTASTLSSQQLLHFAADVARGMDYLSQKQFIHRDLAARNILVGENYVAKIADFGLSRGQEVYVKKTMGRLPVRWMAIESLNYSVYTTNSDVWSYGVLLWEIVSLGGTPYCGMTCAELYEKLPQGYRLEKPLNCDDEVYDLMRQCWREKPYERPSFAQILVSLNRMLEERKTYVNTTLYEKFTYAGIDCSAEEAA

NPM1-ALK = target: T4, NPM1-ALK (Homo sapiens, UniProt Q9UM73); assay: mobility shift assay
T4 construct: purchased Carna Biosciences; the other entry of the earlier key: NPM1 (P06748, Nucleophosmin)

TYK2 = target: T5, TYK2 (Homo sapiens, UniProt P29597); assay: mobility shift assay
T5 construct: purchased Carna Biosciences

EPHA1 = target: T6, EPHA1 (Homo sapiens, UniProt P21709); assay: mobility shift assay
T6 construct: purchased Carna Biosciences

EPHB4 = target: T7, EPHB4 (Homo sapiens, UniProt P54760); assay: mobility shift assay
T7 construct: purchased Carna Biosciences

PIK3α (PIK3CA/PIK3R1) = PIK3α (PIK3CA/PIK3R1) (Homo sapiens, UniProt P42336); assay: IC50 by mobility shift assay; conditions: Table 2, mobility shift assay; read-out: IC50 (μM), Kinase PIK3CA/PIK3RI
Protocol: The compounds obtained in Production Examples described above were each measured for its IC50 value for PIK3α (PIK3CA/PIK3R1) by mobility shift assay. The mobility shift assay is a method involving separating and quantifying a substrate and a phosphorylated substrate on the basis of mobility in a capillary. Each compound was mixed at various concentrations with an assay buffer (20 mM HEPES, 2 mM DTT, 25 μM sodium cholate, 75 mM NaCl, 20 μM cantharidine) together with 21 nM PI3K, 1,000 nM phosphatidyl inositol, 50 μM ATP, and 5 mM MgCl, and the mixture was subjected to a reaction at room temperature for 5 hours, followed by the mobility shift assay. The test was repeated twice. The enzymatic reaction was assessed on the basis of a product ratio (P/(P+S)) calculated from the height of a substrate peptide peak (S) and the height of a phosphorylated peptide peak (P). An inhibition rate was calculated from a signal obtained when each compound was added, with the average signal of a control containing all reaction components being defined as 0% inhibition and the average signal of a background (no enzyme added) being defined as 100% inhibition.
The compounds produced in Production Examples described above were each assessed for its inhibitory activity against CDK7, PIM2, and PI3K by mobility shift assay. In addition, a combination showing the highest inhibitory activity against each kinase is indicated by italics.

JNK2 = target: T8, JNK2 (Homo sapiens, UniProt P45984); assay: mobility shift assay
T8 construct: purchased Carna Biosciences
T8 sequence (P45984 whole entry): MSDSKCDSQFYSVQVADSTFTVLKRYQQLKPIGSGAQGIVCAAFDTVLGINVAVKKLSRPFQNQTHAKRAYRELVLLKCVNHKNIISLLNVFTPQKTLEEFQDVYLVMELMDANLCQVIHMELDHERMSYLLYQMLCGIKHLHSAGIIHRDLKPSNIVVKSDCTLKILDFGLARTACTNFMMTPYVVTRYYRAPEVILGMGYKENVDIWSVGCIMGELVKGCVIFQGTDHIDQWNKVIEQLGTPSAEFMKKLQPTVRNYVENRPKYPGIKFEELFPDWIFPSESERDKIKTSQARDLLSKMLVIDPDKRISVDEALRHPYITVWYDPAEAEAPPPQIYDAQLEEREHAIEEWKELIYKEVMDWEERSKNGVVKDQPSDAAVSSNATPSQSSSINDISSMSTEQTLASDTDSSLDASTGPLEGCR

FM8 = target: T9, FM8 (Homo sapiens, UniProt P07333); assay: mobility shift assay
T9 construct: purchased Carna Biosciences

DYRK1A = target: T10, DYRK1A (Homo sapiens, UniProt Q13627); assay: mobility shift assay
T10 construct: purchased Carna Biosciences

CDK2/CycA2 = target: T11, CDK2/CycA2 (Homo sapiens, UniProt P24941); assay: mobility shift assay
T11 construct: purchased Carna Biosciences

YES(T348I) = target: T12, YES(T348I) (Homo sapiens, UniProt P07947, T348I); assay: mobility shift assay
T12 construct: purchased Carna Biosciences

TSSK1 = target: T13, TSSK1 (Homo sapiens, UniProt Q9BXA7); assay: mobility shift assay
T13 construct: purchased Carna Biosciences

HGK = target: T14, HGK (Homo sapiens, UniProt O95819); assay: mobility shift assay
T14 construct: purchased Carna Biosciences
T14 sequence (O95819 whole entry): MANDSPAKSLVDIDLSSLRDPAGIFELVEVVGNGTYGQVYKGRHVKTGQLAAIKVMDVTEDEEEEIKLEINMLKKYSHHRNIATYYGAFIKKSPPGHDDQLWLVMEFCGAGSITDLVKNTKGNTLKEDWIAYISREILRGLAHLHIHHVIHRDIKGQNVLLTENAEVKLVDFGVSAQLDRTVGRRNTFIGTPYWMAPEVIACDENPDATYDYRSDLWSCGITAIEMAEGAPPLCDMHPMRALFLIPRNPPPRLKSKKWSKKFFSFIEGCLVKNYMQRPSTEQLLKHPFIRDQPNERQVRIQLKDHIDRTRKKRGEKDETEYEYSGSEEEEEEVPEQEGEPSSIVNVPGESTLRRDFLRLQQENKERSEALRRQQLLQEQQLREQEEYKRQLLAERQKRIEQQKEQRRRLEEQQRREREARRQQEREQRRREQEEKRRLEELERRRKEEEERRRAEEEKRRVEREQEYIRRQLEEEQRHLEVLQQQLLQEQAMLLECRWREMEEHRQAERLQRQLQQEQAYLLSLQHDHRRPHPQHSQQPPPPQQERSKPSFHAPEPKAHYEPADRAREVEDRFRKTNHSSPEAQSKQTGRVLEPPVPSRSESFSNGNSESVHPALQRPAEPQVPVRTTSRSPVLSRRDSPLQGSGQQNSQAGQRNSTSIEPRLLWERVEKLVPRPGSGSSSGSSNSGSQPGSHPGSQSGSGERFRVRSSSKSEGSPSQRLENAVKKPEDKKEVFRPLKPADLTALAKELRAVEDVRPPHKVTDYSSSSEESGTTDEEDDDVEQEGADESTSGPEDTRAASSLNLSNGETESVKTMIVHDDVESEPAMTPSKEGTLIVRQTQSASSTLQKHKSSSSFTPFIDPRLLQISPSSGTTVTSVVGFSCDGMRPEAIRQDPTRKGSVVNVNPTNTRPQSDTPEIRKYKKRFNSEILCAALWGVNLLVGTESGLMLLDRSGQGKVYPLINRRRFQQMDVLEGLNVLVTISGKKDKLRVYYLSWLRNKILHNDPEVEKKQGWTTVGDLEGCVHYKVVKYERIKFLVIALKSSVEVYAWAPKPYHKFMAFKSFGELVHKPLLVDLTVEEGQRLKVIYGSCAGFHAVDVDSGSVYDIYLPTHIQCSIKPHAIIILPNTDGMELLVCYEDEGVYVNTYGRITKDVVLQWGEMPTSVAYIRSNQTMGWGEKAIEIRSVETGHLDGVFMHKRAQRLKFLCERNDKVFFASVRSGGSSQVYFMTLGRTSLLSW

PDHK4 = target: T15, PDHK4 (Homo sapiens, UniProt Q16654); assay: mobility shift assay
T15 construct: purchased Carna Biosciences

NEK9 = target: T16, NEK9 (Homo sapiens, UniProt Q8TD19); assay: mobility shift assay
T16 construct: purchased Carna Biosciences

MARK2 = target: T17, MARK2 (Homo sapiens, UniProt Q7KZI7); assay: mobility shift assay
T17 construct: purchased Carna Biosciences

KIT(D816Y) = target: T18, KIT(D816Y) (Homo sapiens, UniProt P10721, D816Y); assay: mobility shift assay
T18 construct: purchased Carna Biosciences

RET = target: T19, RET (Homo sapiens, UniProt P07949); assay: mobility shift assay
T19 construct: purchased Carna Biosciences

PKCθ = target: T20, PKCθ (Homo sapiens, UniProt Q04759); assay: mobility shift assay
T20 construct: purchased Carna Biosciences

CK1γ2 = target: T21, CK1γ2 (Homo sapiens, UniProt P78368); assay: mobility shift assay
T21 construct: purchased Carna Biosciences
T21 sequence (P78368 whole entry): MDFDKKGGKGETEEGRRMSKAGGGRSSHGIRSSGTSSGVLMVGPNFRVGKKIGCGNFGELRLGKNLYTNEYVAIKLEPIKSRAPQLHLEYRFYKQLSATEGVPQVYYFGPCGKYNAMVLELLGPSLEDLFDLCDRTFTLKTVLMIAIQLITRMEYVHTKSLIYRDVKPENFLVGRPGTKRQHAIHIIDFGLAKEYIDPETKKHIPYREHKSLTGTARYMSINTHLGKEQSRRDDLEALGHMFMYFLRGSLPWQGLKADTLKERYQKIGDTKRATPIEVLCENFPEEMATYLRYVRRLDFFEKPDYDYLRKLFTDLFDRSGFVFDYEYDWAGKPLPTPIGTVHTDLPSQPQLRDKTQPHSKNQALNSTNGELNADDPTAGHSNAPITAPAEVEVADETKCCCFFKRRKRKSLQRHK

IRR = target: T22, IRR (Homo sapiens, UniProt P14616); assay: mobility shift assay
T22 construct: purchased Carna Biosciences

NDR1 = target: T23, NDR1 (Homo sapiens, UniProt Q15208); assay: mobility shift assay
T23 construct: purchased Carna Biosciences
T23 sequence (Q15208 whole entry): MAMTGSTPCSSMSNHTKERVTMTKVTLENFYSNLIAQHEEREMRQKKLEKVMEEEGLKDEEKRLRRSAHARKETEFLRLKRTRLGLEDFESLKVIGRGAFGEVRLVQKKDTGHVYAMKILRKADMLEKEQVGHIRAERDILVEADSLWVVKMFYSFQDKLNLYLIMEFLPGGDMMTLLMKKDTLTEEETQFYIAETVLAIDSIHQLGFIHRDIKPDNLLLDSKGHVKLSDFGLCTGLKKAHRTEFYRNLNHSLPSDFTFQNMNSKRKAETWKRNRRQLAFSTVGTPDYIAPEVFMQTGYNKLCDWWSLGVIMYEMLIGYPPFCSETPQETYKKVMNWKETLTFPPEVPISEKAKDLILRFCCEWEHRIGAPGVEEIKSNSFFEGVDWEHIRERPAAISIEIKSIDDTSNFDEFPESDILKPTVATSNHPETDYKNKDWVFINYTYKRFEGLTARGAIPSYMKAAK

SRPK1 = target: T24, SRPK1 (Homo sapiens, UniProt Q96SB4); assay: IMAP Assay
T24 construct: purchased Carna Biosciences

BRSK2 = target: T25, BRSK2 (Homo sapiens, UniProt Q8IWQ3); assay: mobility shift assay
T25 construct: purchased Carna Biosciences

TRKB = target: T26, TRKB (Homo sapiens, UniProt Q16620); assay: mobility shift assay
T26 construct: purchased Carna Biosciences

MSK2 = target: T27, MSK2 (Homo sapiens, UniProt O75676); assay: mobility shift assay
T27 construct: purchased Carna Biosciences

CaMK1δ = target: T28, CaMK1δ (Homo sapiens, UniProt Q8IU85); assay: mobility shift assay
T28 construct: purchased Carna Biosciences

Haspin = target: T29, Haspin (Homo sapiens, UniProt Q8TF76); assay: mobility shift assay
T29 construct: purchased Carna Biosciences

PASK = target: T30, PASK (Homo sapiens, UniProt Q96RG2); assay: mobility shift assay
T30 construct: purchased Carna Biosciences

LOK = target: T31, LOK (Homo sapiens, UniProt O94804); assay: mobility shift assay
T31 construct: purchased Carna Biosciences

FER = target: T32, FER (Homo sapiens, UniProt P16591); assay: mobility shift assay
T32 construct: purchased Carna Biosciences

KIT(D816E) = target: T33, KIT(D816E) (Homo sapiens, UniProt P10721, D816E); assay: mobility shift assay
T33 construct: purchased Carna Biosciences

T1 sequence (Q99683 whole entry): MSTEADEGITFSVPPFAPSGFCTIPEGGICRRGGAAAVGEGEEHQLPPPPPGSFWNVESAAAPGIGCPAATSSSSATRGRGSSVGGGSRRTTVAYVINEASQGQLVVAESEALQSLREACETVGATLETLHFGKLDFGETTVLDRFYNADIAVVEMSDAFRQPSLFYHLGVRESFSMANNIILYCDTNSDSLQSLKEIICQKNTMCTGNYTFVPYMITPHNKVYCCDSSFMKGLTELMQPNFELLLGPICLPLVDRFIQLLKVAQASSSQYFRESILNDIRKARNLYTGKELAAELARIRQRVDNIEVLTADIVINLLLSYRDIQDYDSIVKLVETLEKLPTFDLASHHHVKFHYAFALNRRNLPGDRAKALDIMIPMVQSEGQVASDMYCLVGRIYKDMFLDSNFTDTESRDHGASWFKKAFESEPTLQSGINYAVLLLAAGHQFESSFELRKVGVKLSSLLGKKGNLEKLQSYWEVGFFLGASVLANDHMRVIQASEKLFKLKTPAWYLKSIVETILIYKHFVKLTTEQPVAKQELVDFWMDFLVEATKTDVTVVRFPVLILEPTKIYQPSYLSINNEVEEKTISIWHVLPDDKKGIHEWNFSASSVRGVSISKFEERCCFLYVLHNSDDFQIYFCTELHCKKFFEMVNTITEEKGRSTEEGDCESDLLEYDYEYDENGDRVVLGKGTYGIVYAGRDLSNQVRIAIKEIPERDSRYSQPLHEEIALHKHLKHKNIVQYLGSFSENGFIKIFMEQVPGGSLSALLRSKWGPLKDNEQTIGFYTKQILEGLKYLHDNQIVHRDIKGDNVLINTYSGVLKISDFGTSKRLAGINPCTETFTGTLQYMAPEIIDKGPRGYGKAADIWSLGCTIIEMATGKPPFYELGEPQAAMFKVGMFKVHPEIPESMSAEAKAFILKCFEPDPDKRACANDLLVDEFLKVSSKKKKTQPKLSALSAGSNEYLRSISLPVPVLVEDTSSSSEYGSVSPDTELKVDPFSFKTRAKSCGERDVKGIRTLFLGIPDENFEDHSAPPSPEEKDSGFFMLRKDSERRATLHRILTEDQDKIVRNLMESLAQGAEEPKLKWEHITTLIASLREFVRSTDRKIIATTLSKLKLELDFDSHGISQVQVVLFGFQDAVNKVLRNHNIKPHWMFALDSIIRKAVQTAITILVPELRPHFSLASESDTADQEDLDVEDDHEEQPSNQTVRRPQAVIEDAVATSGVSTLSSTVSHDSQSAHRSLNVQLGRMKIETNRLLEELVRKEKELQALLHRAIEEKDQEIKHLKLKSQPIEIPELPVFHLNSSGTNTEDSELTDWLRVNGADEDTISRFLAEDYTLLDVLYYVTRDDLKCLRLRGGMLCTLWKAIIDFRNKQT

## C[C@@H]1CC[C@H]2C(C)(C)CCC[C@]2(C)c2c1oc1c(C=O)c(O)c(O)cc21 [LG-1, liphagal]
MAP3K5_Cascade
  inhibition at 10 µM: 38%
DDR1
  inhibition at 10 µM: 60.5%
TIE2
  inhibition at 10 µM: 11.7%
NPM1-ALK
  inhibition at 10 µM: 2.3%
TYK2
  inhibition at 10 µM: -6.5%
EPHA1
  inhibition at 10 µM: 0.5%
EPHB4
  inhibition at 10 µM: -1.2%
PIK3α (PIK3CA/PIK3R1)
  IC50: 4.12 µM
JNK2
  inhibition at 10 µM: 10.7%
FM8
  inhibition at 10 µM: 12.5%
DYRK1A
  inhibition at 10 µM: 10.5%
CDK2/CycA2
  inhibition at 10 µM: 10.3%
YES(T348I)
  inhibition at 10 µM: 3.7%
TSSK1
  inhibition at 10 µM: 4.1%
HGK
  inhibition at 10 µM: 1.2%
PDHK4
  inhibition at 10 µM: 7.4%
NEK9
  inhibition at 10 µM: 27.3%
MARK2
  inhibition at 10 µM: 2.7%
KIT(D816Y)
  inhibition at 10 µM: 6.2%
RET
  inhibition at 10 µM: 10.6%
PKCθ
  inhibition at 10 µM: -15%
CK1γ2
  inhibition at 10 µM: -2.8%
IRR
  inhibition at 10 µM: 23.1%
NDR1
  inhibition at 10 µM: 2.6%
SRPK1
  inhibition at 10 µM: 28.2%
BRSK2
  inhibition at 10 µM: 9.3%
TRKB
  inhibition at 10 µM: 15.8%
MSK2
  inhibition at 10 µM: -11.7%
CaMK1δ
  inhibition at 10 µM: 57.7%
Haspin
  inhibition at 10 µM: 3.3%
PASK
  inhibition at 10 µM: 17.4%
LOK
  inhibition at 10 µM: 15.8%
FER
  inhibition at 10 µM: 42.8%
KIT(D816E)
  inhibition at 10 µM: 19.4%
